Test results reported in US20190365675A1, “COMPOSITIONS FOR THE PREVENTION AND/OR TREATMENT OF ALCOHOL USE DISORDERS” (SERVICIO ANDALUZ DE SALUD, priority 2016, published 2019).

Columns and labels:
LPS = experiment: Plasma LPS levels (intestinal permeability to endotoxins); format: in vivo, Wistar rats; settings: animals pretreated with OEA and receiving ethanol; ethanol alone about 80%; does not differ from control or ethanol group
Procedure: The animals were treated with intragastric (i.g.) ethanol 3 times a day using an i.g. cannula (16G needle, Fisher Scientific, Waltham, Mass., USA), following a protocol based on a slightly modified standard 4-day alcohol intoxication pattern (Bernier et al., 2002a, b) (FIG. 1A). The ethanol doses were administered every 8 h for a total time of 4 days. The rats treated with ethanol received an initial loading dose of 5 g/kg of ethanol in a 30% solution (w/v) and then a maximum maintenance dose of 3 g/kg, which were determined based on blood ethanol levels (BEL). This repeated standard alcohol intoxication paradigm kept BEL intoxication relatively constant in a range of sedation/ataxia (190 to 430 mg/dl, Table 3), according to the 6-point alcohol intoxication behavior scale (Majchrowicz, 1975). The mean dose of ethanol/rat/day (days 1-4) was 7.06 g/kg, similar to other studies (Obernier et al., 2002a, b). […]
Corticosterone and LPS were measured in plasma by means of the use of radioimmunoassay (R.I.A.) kits available on the market (Coat-A-Count®, Siemens, La., USA) or colorimetric enzymatic reaction (HyCult Biotech, Uden, Netherlands), respectively.

TNF-α = TNF-α mRNA and protein (ELISA) in frontal cortex and plasma after ethanol intoxication; format: in vivo, Wistar rats; settings: OEA pre-treatment
Procedure: The animals were treated with intragastric (i.g.) ethanol 3 times a day using an i.g. cannula (16G needle, Fisher Scientific, Waltham, Mass., USA), following a protocol based on a slightly modified standard 4-day alcohol intoxication pattern (Bernier et al., 2002a, b) (FIG. 1A). The ethanol doses were administered every 8 h for a total time of 4 days. The rats treated with ethanol received an initial loading dose of 5 g/kg of ethanol in a 30% solution (w/v) and then a maximum maintenance dose of 3 g/kg, which were determined based on blood ethanol levels (BEL). This repeated standard alcohol intoxication paradigm kept BEL intoxication relatively constant in a range of sedation/ataxia (190 to 430 mg/dl, Table 3), according to the 6-point alcohol intoxication behavior scale (Majchrowicz, 1975). The mean dose of ethanol/rat/day (days 1-4) was 7.06 g/kg, similar to other studies (Obernier et al., 2002a, b). OEA (5 mg/kg, i.p., except initial dose of 10 mg/kg i.p.; synthesized as described in Giuffrida et al., 2000) was dissolved in the vehicle (5% Tween-80 in saline solution) and injected 10 minutes before each of the administrations of ethanol by an intragastric gavage. The anti-inflammatory activity of OEA at 10 mg/kg per intraperitoneal route in the frontal cortex before the injection of LPS (Sayd et al., 2014) was previously referred to. In this study, OEA is repeatedly injected as a pre-treatment before each administration of ethanol. […] The quantitative changes in mRNA levels were estimated by means of RT-PCR, carried out in the presence of the SYBR green primer using a 20-L reaction in a Rotor-Gene (Corbett Research®, Mortlake, NSW, Australia). […] The levels of soluble HMGB1, TNF-α, IL-1β and MCP-1 were determined by means of a commercially available enzyme-linked immunosorbent assay kit (ELISA) (Elabscience Biotechnology Co., Ltd., China, for HMGB-1; RayBiotech®, GA, USA, for TNF-α, IL-1β, and MCP-1). The nuclear/cytosol HMGB1 fraction was determined by means of Western blot analysis.

## CCCCCCCC/C=C\CCCCCCCC(=O)NCCO [OEA, oleoylethanolamide]
LPS
  Plasma LPS levels, increase with respect to the control: 44%
TNF-α; frontal cortex, ELISA
  Ethanol-induced increase in TNF-α protein levels: not prevented
TNF-α; frontal cortex
  Ethanol-induced increase in TNF-α mRNA: did not prevent
TNF-α; plasma, ELISA
  Increase in plasma TNF-α after ethanol intoxication: partially prevented
